The subject of this series is human CD4+ T-cells.

We go through three molecules from patent US8871722B2, “Perhydrolase epitopes” (Danisco US Inc., priority 2005, dated 2014).

With tetanus toxoid [reference compound], the “positive control proliferative response” value (tetanus toxoid at approximately 5 Lf/mL) is “robust positive control responses”.
As to “QLIFEGGEQKTTELA (listed as Mycobacterium smegmatis) [SEQ ID NO:53]”, the “identification of peptide T-cell epitope (significant response in donor pool)” value (5 μM peptide, human donors) is given as “one peptide of interest was identified”.

B1: perhydrolase: wild-type M. smegmatis perhydrolase enzyme, amino acid sequence SEQ ID NO:2 (protein, listed as Mycobacterium smegmatis)
chain: MAKRILCFGDSLTWGWVPVEDGAPTERFAPDVRWTGVLAQQLGADFEVIEEGLSARTTNIDDPTDPRLNGASYLPSCLATHLPLDLVIIMLGTNDTKAYFRRTPLDIALGMSVLVTQVLTSAGGVGTTYPAPKVLVVSPPPLAPMPHPWFQLIFEGGEQKTTELARVYSALASFMKVPFFDAGSVISTDGVDGIHFTEANNRDLGVALAEQVRSLL
As for B1, the “structure index value (relative immunogenicity)” value (scale 0 to 2, the closer to 2.0 the more immunogenic) is listed as less than 0.5.
